Literature values, collected in patent US8260406B2, “System and method for analyzing complex curvature of ECG curves” (Aalborg Universitet, priority 2006, dated 2012).

Tested on: cardiac repolarization (T-wave) in healthy subjects
Details: 30 min after sotalol administration; increase; p<0.05; occurring prior to QT prolongation; PCA of ECG Holter recordings

For `CC(C)NCC(O)c1ccc(NS(C)(=O)=O)cc1` (stereo not shown) [sotalol], the “turbulence of repolarization velocity increased by” value is given as 9.02%.
